This is an account of results in article PMC7048932, “Examining sterically demanding lysine analogs for histone lysine methyltransferase catalysis” (Scientific Reports, 2020).

The experiment addresses T1, GLP (Homo sapiens, UniProt Q9H9B1).
T1 construct: His6 (N); made in house; host or cells: E. coli BL21 (DE3)pLysS-rosetta
T1 sequence (Q9H9B1 1-1298): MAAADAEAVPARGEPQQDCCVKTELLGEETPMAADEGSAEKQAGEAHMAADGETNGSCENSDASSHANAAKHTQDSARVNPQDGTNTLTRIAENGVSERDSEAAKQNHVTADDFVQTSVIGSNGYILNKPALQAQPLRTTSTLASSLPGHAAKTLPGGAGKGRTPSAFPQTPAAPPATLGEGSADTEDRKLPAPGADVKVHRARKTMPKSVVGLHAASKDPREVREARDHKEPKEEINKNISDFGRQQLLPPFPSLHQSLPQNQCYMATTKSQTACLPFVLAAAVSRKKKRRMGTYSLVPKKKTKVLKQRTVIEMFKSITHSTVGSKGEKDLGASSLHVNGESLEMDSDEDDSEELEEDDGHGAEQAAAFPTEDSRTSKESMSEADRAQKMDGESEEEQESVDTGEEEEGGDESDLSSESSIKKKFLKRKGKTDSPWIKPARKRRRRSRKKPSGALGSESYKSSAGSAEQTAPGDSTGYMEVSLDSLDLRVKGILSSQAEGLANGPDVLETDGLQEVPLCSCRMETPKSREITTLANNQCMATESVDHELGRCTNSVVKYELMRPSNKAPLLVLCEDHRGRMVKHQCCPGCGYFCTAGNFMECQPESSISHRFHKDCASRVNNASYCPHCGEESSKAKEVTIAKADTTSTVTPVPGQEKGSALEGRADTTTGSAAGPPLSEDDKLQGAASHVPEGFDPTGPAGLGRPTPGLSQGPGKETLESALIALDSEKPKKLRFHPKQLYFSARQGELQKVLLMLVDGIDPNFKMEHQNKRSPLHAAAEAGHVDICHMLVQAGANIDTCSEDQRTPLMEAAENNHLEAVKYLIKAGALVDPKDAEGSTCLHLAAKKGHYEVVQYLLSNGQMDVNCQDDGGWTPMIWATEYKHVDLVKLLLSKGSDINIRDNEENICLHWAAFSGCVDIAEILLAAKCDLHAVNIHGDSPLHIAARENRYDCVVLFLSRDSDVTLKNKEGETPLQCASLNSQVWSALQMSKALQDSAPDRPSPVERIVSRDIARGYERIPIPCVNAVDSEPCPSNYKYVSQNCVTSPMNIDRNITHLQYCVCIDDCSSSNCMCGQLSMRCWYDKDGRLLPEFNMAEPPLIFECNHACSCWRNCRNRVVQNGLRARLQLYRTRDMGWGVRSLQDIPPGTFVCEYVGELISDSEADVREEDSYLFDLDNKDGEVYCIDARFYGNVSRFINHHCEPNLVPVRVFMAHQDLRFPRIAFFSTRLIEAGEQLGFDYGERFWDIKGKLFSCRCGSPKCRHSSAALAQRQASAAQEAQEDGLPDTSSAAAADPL
Description: MALDI-TOF MS methylation assay of H3K9 peptides with GLP. The conditions noted are these: peptide 100 µM, 37 °C. It is filed as biochemical. As for the experimental part: MALDI-MS methyltransferases activity experiments were performed using a Bruker instrument in the reflectron positive mode. For regular methyltransferase standard conditions experiment which carried out in 30 µL total volume, the mixture contains peptide (100 µM), SAM (200 µM), SETD8 or SETD7 (2 µM), in assay buffer 50 mM Tris at optimal pH 8.0. In case of G9a and GLP, similar conditions were used, except (500 µM) of SAM was added to the reaction mixture. […] A 5 µL aliquot of the solution was mixed with 5 µL of MeOH, after which 5 µL of this mixture was mixed with 5 µL of α-cyano-4-hydroxycinamic acid matrix (CHCA, 5 mg/mL in 125:125 µL acetonitrile/water). The spots were placed on a stainless steel MALDI plate (MS 96 target ground steel BC of Bruker, Germany). The mass corresponding to one monomethylation observed as +14 Da, dimethylation observed as +28 Da and trimethylation observed as +42 Da. The enzymatic activity was determined by taking the peak areas of each methylation state, including all isotopes and adducts, and was annotated using FlexAnalysis software (Bruker Daltonics, Germany). […] Methylated peptide substrates were repeated five times and the unmethylated substrates were triplicated. Sequences of the examined peptides are given in (Supplementary Table 1).

[1] abbreviates: GLP 10 µM, SAM 1 mM, 5 h, MALDI-MS.

With ARTKQTAR(Kba9)STGGKA [H3Kba9], for the setting “GLP 2 µM, SAM 500 µM, 1 h, MALDI-TOF MS”, the “GLP-catalyzed methylation, result in words” value is reported as “traces detected”. For the same substance, under setting [1], the “GLP-catalyzed methylation, result in words, increased GLP/SAM” value is reported as “monomethylation” and the “GLP-catalyzed monomethylation, increased GLP/SAM” value is on record as 55%.
